Values quoted from earlier work in patent US11324772B2, “Periodontal gel composition and method of use” (PRUDENTIX LTD., priority 2017, dated 2022).

For `CCCCCCCCN=c1ccn(CCCCCCCCCCn2ccc(=NCCCCCCCC)cc2)cc1` [octenidine, 1,1′,4,4′-tetrahydro-N,N′-dioctyl-1,1′-decametylenedi-(4-pyridylideneamine)], the “pH range in which octenidine is stable and maintains its antimicrobial activity” value (pH) is given as 1.6-12.2 and the “temperature up to which it can be sterilized by steam in aqueous solutions” value (steam, aqueous solutions) is given as “up to 130 °C”.
